This assay has as its system Wistar type male rat. The assay can be described thus: Activity to resist growth of ulcer (ethanol hydrochloric acid induced gastric injury). Type of assay: in vivo. The settings on record: 30mg/kg orally, 1 hour before oral ethanol hydrochloric acid, ulcer index 1 hour later; for inhibition in vivo at 30 mg/kg: read-out: Ratio of inhibiting formation of ulcer (%). Here is the method:
A Wistar type male rat (body weight 150 to 200 g) was fasted for 24 hours, then orally administered with a catechol compound according with the present invention and, on elapse of 1 hour thereafter, orally administered with ethanol hydrochloric acid (having 150 mM hydrochloric acid contained in 60% ethanol) at a rate of 0.5 ml/100 g of body weight.
After 1 hour following the oral administration of ethanol hydrochloric acid, the rat was sacrified with ether. The stomach was excited from the corpse, treated with formalin, and visually examined to measure lengths of injuries generated on the glanular part of the stomach. The total of injuries was reported as an ulcer index of the rat in question.
The term "ratio of inhibiting formation of ulcer (%)" as used in the table refers to a numerical value obtained by subtracting the ulcer index of a rat orally administered with a given catechol compound according with the present invention from the ulcer index of a rat not orally administered with catechol compound and multiplying the difference by 100.

Consider 9 molecules from EP0402469B1, “CATECHOL COMPOUNDS, PROCESS FOR THEIR PREPARATION AND PHARMACEUTICAL PREPARATION CONTAINING SAME” (TERUMO KABUSHIKI KAISHA, priority 1988, dated 1989).

Molecules are shown by their SMILES.

In the case of `CCCCCCCCCC(=O)CC(=O)C=Cc1ccc(O)c(O)c1` [Example 1, 1-(3,4-dihydroxyphenyl)-1-tetradecen-3,5-dione], the inhibition in vivo at 30 mg/kg was 82.4%.

With `CCCCCCCCCC(=O)CC(=O)CCc1ccc(O)c(O)c1` [Example 2, 1-(3,4-dihydroxyphenyl)-3,5-tetradecane dione], the inhibition in vivo at 30 mg/kg was found to be 92.1%.

On to `CCCCCCCCCC(O)CC(=O)CCc1ccc(O)c(O)c1` (stereo not drawn) [Example 4, 1-(3,4-hydroxyphenyl)-5-hydroxytetradecan-3-one], for which the “Ratio of inhibiting formation of ulcer (%)” value is 84.4%.

For `CCCCCCCC(=O)CC(=O)C=Cc1ccc(O)c(O)c1` [Example 7, 1-(3,4-dihydroxyphenyl)-1-dodecen-3,5-dione], the inhibition in vivo at 30 mg/kg turned out to be 85.7%.

`CCCCCCCC(=O)CC(=O)CCc1ccc(O)c(O)c1` [Example 8, 1-(3,4-dihydroxyphenyl)-3,5-dodecane dione]: the inhibition in vivo at 30 mg/kg was found to be 88.3%.

Turning to `CCCCCC(=O)CC(=O)C=Cc1ccc(O)c(O)c1` [Example 9, 1-(3,4-dihydroxyphenyl)-1-decen-3,5-dione], the inhibition in vivo at 30 mg/kg turned out to be 77.9%.

Turning to `CCCCCC(=O)CC(=O)CCc1ccc(O)c(O)c1` [Example 10, 1-(3,4-dihydroxyphenyl)-3,5-decane dione], the inhibition in vivo at 30 mg/kg was 84.6%.

For the molecule `CCCC(=O)CC(=O)C=Cc1ccc(O)c(O)c1` [Example 11, 1-(3,4-dihydroxyphenyl)-1-octen-3,5-dione], the inhibition in vivo at 30 mg/kg came out at 58.7%.

For the molecule `CCCC(=O)CC(=O)CCc1ccc(O)c(O)c1` [Example 12, 1-(3,4-dihydroxyphenyl)-3,5-octadione], the inhibition in vivo at 30 mg/kg is 81.8%.
